Experimental data published in ChEMBL document CHEMBL5346973 (J Med Chem, 2023).
Where a SMILES comes first, the peptide text is derived from it.

Target: Nicotinic acetylcholine receptor alpha9/alpha10 (Rattus norvegicus, UniProt P43144+Q9JLB5)
Experiment: Antagonist activity at rat alpha9alpha10 nACh receptor expressed in Xenopus oocyte assessed as inhibition of acetylcholine-induced response at -70 mV holding potential by voltage-clamp based electrophysiological assay
Type: cell-based

Nicotinic acetylcholine receptor alpha9/alpha10, sequence (P43144 whole entry): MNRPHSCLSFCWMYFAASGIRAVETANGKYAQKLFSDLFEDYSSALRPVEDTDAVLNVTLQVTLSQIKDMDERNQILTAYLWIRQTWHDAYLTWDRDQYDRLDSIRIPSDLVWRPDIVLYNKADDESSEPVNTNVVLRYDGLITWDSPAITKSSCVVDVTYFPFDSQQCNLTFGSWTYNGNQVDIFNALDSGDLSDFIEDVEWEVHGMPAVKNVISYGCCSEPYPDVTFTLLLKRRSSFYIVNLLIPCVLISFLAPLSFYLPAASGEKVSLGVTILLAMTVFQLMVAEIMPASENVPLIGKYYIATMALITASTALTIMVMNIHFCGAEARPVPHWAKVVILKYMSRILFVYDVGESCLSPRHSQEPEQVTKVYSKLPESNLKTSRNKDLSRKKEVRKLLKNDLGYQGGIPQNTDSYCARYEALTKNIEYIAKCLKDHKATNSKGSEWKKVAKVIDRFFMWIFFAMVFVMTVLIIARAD
Nicotinic acetylcholine receptor alpha9/alpha10, sequence (Q9JLB5 whole entry): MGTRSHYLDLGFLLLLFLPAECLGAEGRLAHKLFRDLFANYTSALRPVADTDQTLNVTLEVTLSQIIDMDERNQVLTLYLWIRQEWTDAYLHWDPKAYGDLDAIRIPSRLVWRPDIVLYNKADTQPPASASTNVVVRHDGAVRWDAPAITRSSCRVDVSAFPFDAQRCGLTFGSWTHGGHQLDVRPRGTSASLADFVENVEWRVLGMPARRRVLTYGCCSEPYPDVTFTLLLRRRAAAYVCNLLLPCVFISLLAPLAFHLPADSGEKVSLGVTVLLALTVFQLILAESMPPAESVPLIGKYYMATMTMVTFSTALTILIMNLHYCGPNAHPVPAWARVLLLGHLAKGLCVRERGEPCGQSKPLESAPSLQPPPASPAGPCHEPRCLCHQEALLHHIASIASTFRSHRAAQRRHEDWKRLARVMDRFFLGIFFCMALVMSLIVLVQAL

## CC[C@H](C)[C@@H]1NC(=O)[C@H](CCCNC(=N)N)NC(=O)[C@H](CCCNC(=N)N)NC(=O)[C@@H](NC(=O)[C@H](Cc2ccc(O)cc2)NC(=O)[C@H](C)NC(=O)[C@H](C)NC(=O)[C@H](CCCNC(=N)N)NC(=O)[C@H](CCCNC(=N)N)NC(=O)[C@H](CC(=O)O)NC(=O)[C@H](Cc2ccc(O)cc2)NC(=O)[C@@H]2CCCN2C(=O)[C@H](CO)NC(=O)[C@H](CCCNC(=N)N)NC(=O)[C@@H]2CSSC[C@H](NC(=O)[C@@H](N)[C@@H](C)O)C(=O)N[C@@H](CCCNC(=N)N)C(=O)N[C@@H](CO)C(=O)N[C@@H](CO)C(=O)NCC(=O)N[C@@H](CCCNC(=N)N)C(=O)N[C@@H](Cc3ccc(O)cc3)C(=O)N2)CSSC[C@@H](C(=O)N[C@H](C(=O)O)C(C)C)NC(=O)[C@H](C)NC(=O)[C@H](CC(=O)O)NC(=O)[C@H]([C@@H](C)O)NC1=O
  IC50: 0.23 µM

## CC[C@H](C)[C@@H]1NC(=O)[C@H](CCCNC(=N)N)NC(=O)[C@H](CCCNC(=N)N)NC(=O)[C@@H](NC(=O)[C@H](Cc2ccc(O)cc2)NC(=O)[C@H](C)NC(=O)[C@H](CCCNC(=N)N)NC(=O)[C@H](CCCNC(=N)N)NC(=O)[C@H](C)NC(=O)[C@H](CC(=O)O)NC(=O)[C@H](Cc2ccc(O)cc2)NC(=O)[C@@H]2CCCN2C(=O)[C@H](CO)NC(=O)[C@H](CCCNC(=N)N)NC(=O)[C@@H]2CSSC[C@H](NC(=O)[C@@H](N)[C@@H](C)O)C(=O)N[C@@H](CCCNC(=N)N)C(=O)N[C@@H](CO)C(=O)N[C@@H](CO)C(=O)NCC(=O)N[C@@H](CCCNC(=N)N)C(=O)N[C@@H](Cc3ccc(O)cc3)C(=O)N2)CSSC[C@@H](C(=O)N[C@H](C(=O)O)C(C)C)NC(=O)[C@H](C)NC(=O)[C@H](CC(=O)O)NC(=O)[C@H]([C@@H](C)O)NC1=O
  IC50: 0.35 µM

## CC[C@H](C)[C@@H]1NC(=O)[C@H](CCCNC(=N)N)NC(=O)[C@H](CCCNC(=N)N)NC(=O)[C@@H](NC(=O)[C@H](Cc2ccc(O)cc2)NC(=O)[C@H](CCCNC(=N)N)NC(=O)[C@H](C)NC(=O)[C@H](CCCNC(=N)N)NC(=O)[C@H](C)NC(=O)[C@H](CC(=O)O)NC(=O)[C@H](Cc2ccc(O)cc2)NC(=O)[C@@H]2CCCN2C(=O)[C@H](CO)NC(=O)[C@H](CCCNC(=N)N)NC(=O)[C@@H]2CSSC[C@H](NC(=O)[C@@H](N)[C@@H](C)O)C(=O)N[C@@H](CCCNC(=N)N)C(=O)N[C@@H](CO)C(=O)N[C@@H](CO)C(=O)NCC(=O)N[C@@H](CCCNC(=N)N)C(=O)N[C@@H](Cc3ccc(O)cc3)C(=O)N2)CSSC[C@@H](C(=O)N[C@H](C(=O)O)C(C)C)NC(=O)[C@H](C)NC(=O)[C@H](CC(=O)O)NC(=O)[C@H]([C@@H](C)O)NC1=O
  IC50: 0.23 µM

## CC[C@H](C)[C@@H]1NC(=O)[C@H](CCCNC(=N)N)NC(=O)[C@H](CCCNC(=N)N)NC(=O)[C@@H](NC(=O)[C@H](Cc2ccc(O)cc2)NC(=O)[C@H](CCCNC(=N)N)NC(=O)[C@H](CCCNC(=N)N)NC(=O)[C@H](CCCNC(=N)N)NC(=O)[C@H](CCCNC(=N)N)NC(=O)[C@H](CC(=O)O)NC(=O)[C@H](Cc2ccc(O)cc2)NC(=O)[C@@H]2CCCN2C(=O)[C@H](CO)NC(=O)[C@H](CCCNC(=N)N)NC(=O)[C@@H]2CSSC[C@H](NC(=O)[C@@H](N)[C@@H](C)O)C(=O)N[C@@H](C)C(=O)N[C@@H](CO)C(=O)N[C@@H](CO)C(=O)NCC(=O)N[C@@H](C)C(=O)N[C@@H](Cc3ccc(O)cc3)C(=O)N2)CSSC[C@@H](C(=O)N[C@H](C(=O)O)C(C)C)NC(=O)[C@H](C)NC(=O)[C@H](CC(=O)O)NC(=O)[C@H]([C@@H](C)O)NC1=O (HELM PEPTIDE1{T.C.A.S.S.G.A.Y.C.R.S.P.Y.D.R.R.R.R.Y.C.R.R.I.T.D.A.C.V}$PEPTIDE1,PEPTIDE1,2:R3-9:R3|PEPTIDE1,PEPTIDE1,20:R3-27:R3$$$V2.0)
  IC50: 0.37 µM

## CC[C@H](C)[C@@H]1NC(=O)[C@H](CCCNC(=N)N)NC(=O)[C@H](CCCNC(=N)N)NC(=O)[C@@H](NC(=O)[C@H](Cc2ccc(O)cc2)NC(=O)[C@H](C)NC(=O)[C@H](CCCNC(=N)N)NC(=O)[C@H](C)NC(=O)[C@H](CCCNC(=N)N)NC(=O)[C@H](CC(=O)O)NC(=O)[C@H](Cc2ccc(O)cc2)NC(=O)[C@@H]2CCCN2C(=O)[C@H](CO)NC(=O)[C@H](CCCNC(=N)N)NC(=O)[C@@H]2CSSC[C@H](NC(=O)[C@@H](N)[C@@H](C)O)C(=O)N[C@@H](CCCNC(=N)N)C(=O)N[C@@H](CO)C(=O)N[C@@H](CO)C(=O)NCC(=O)N[C@@H](CCCNC(=N)N)C(=O)N[C@@H](Cc3ccc(O)cc3)C(=O)N2)CSSC[C@@H](C(=O)N[C@H](C(=O)O)C(C)C)NC(=O)[C@H](C)NC(=O)[C@H](CC(=O)O)NC(=O)[C@H]([C@@H](C)O)NC1=O
  IC50: 0.41 µM

## CC[C@H](C)[C@@H]1NC(=O)[C@H](CCCNC(=N)N)NC(=O)[C@H](CCCNC(=N)N)NC(=O)[C@@H](NC(=O)[C@H](Cc2ccc(O)cc2)NC(=O)[C@H](CCCNC(=N)N)NC(=O)[C@H](CCCNC(=N)N)NC(=O)[C@H](CCCNC(=N)N)NC(=O)[C@H](CCCNC(=N)N)NC(=O)[C@H](CC(=O)O)NC(=O)[C@H](Cc2ccc(O)cc2)NC(=O)[C@@H]2CCCN2C(=O)[C@H](CO)NC(=O)[C@H](C)NC(=O)[C@@H]2CSSC[C@H](NC(=O)[C@@H](N)[C@@H](C)O)C(=O)N[C@@H](CCCNC(=N)N)C(=O)N[C@@H](CO)C(=O)N[C@@H](CO)C(=O)NCC(=O)N[C@@H](C)C(=O)N[C@@H](Cc3ccc(O)cc3)C(=O)N2)CSSC[C@@H](C(=O)N[C@H](C(=O)O)C(C)C)NC(=O)[C@H](C)NC(=O)[C@H](CC(=O)O)NC(=O)[C@H]([C@@H](C)O)NC1=O (HELM PEPTIDE1{T.C.R.S.S.G.A.Y.C.A.S.P.Y.D.R.R.R.R.Y.C.R.R.I.T.D.A.C.V}$PEPTIDE1,PEPTIDE1,2:R3-9:R3|PEPTIDE1,PEPTIDE1,20:R3-27:R3$$$V2.0)
  IC50: 0.44 µM

## CC[C@H](C)[C@@H]1NC(=O)[C@H](CCCNC(=N)N)NC(=O)[C@H](CCCNC(=N)N)NC(=O)[C@@H](NC(=O)[C@H](Cc2ccc(O)cc2)NC(=O)[C@H](CCCNC(=N)N)NC(=O)[C@H](CCCNC(=N)N)NC(=O)[C@H](C)NC(=O)[C@H](C)NC(=O)[C@H](CC(=O)O)NC(=O)[C@H](Cc2ccc(O)cc2)NC(=O)[C@@H]2CCCN2C(=O)[C@H](CO)NC(=O)[C@H](CCCNC(=N)N)NC(=O)[C@@H]2CSSC[C@H](NC(=O)[C@@H](N)[C@@H](C)O)C(=O)N[C@@H](CCCNC(=N)N)C(=O)N[C@@H](CO)C(=O)N[C@@H](CO)C(=O)NCC(=O)N[C@@H](CCCNC(=N)N)C(=O)N[C@@H](Cc3ccc(O)cc3)C(=O)N2)CSSC[C@@H](C(=O)N[C@H](C(=O)O)C(C)C)NC(=O)[C@H](C)NC(=O)[C@H](CC(=O)O)NC(=O)[C@H]([C@@H](C)O)NC1=O
  IC50: 0.26 µM

## CC[C@H](C)[C@@H]1NC(=O)[C@H](CCCNC(=N)N)NC(=O)[C@H](CCCNC(=N)N)NC(=O)[C@@H](NC(=O)[C@H](Cc2ccc(O)cc2)NC(=O)[C@H](CCCNC(=N)N)NC(=O)[C@H](C)NC(=O)[C@H](C)NC(=O)[C@H](CCCNC(=N)N)NC(=O)[C@H](CC(=O)O)NC(=O)[C@H](Cc2ccc(O)cc2)NC(=O)[C@@H]2CCCN2C(=O)[C@H](CO)NC(=O)[C@H](CCCNC(=N)N)NC(=O)[C@@H]2CSSC[C@H](NC(=O)[C@@H](N)[C@@H](C)O)C(=O)N[C@@H](CCCNC(=N)N)C(=O)N[C@@H](CO)C(=O)N[C@@H](CO)C(=O)NCC(=O)N[C@@H](CCCNC(=N)N)C(=O)N[C@@H](Cc3ccc(O)cc3)C(=O)N2)CSSC[C@@H](C(=O)N[C@H](C(=O)O)C(C)C)NC(=O)[C@H](C)NC(=O)[C@H](CC(=O)O)NC(=O)[C@H]([C@@H](C)O)NC1=O
  IC50: 0.13 µM

## CC[C@H](C)[C@@H]1NC(=O)[C@H](C)NC(=O)[C@H](C)NC(=O)[C@@H](NC(=O)[C@H](Cc2ccc(O)cc2)NC(=O)[C@H](CCCNC(=N)N)NC(=O)[C@H](CCCNC(=N)N)NC(=O)[C@H](CCCNC(=N)N)NC(=O)[C@H](CCCNC(=N)N)NC(=O)[C@H](CC(=O)O)NC(=O)[C@H](Cc2ccc(O)cc2)NC(=O)[C@@H]2CCCN2C(=O)[C@H](CO)NC(=O)[C@H](CCCNC(=N)N)NC(=O)[C@@H]2CSSC[C@H](NC(=O)[C@@H](N)[C@@H](C)O)C(=O)N[C@@H](CCCNC(=N)N)C(=O)N[C@@H](CO)C(=O)N[C@@H](CO)C(=O)NCC(=O)N[C@@H](CCCNC(=N)N)C(=O)N[C@@H](Cc3ccc(O)cc3)C(=O)N2)CSSC[C@@H](C(=O)N[C@H](C(=O)O)C(C)C)NC(=O)[C@H](C)NC(=O)[C@H](CC(=O)O)NC(=O)[C@H]([C@@H](C)O)NC1=O
  IC50: 0.18 µM

## CC(C)C[C@H](NC(=O)[C@H](CCCCN)NC(=O)[C@H](CC(N)=O)NC(=O)[C@@H]1CCCN1C(=O)[C@H](CCC(N)=O)NC(=O)[C@H](C)NC(=O)CNC(=O)[C@H](CO)NC(=O)[C@H](CCCCN)NC(=O)[C@H](CCC(=O)O)NC(=O)[C@H](CC(C)C)NC(=O)[C@H](CS)NC(=O)[C@@H](CCCNC(=N)N)NC(=O)[C@@H](N)C(C)C)C(=O)N[C@@H](Cc1ccccc1)C(=O)N[C@@H](CCCNC(=N)N)C(=O)N1CCC[C@H]1C(=O)N1CCC[C@H]1C(=O)N[C@@H](CS)C(=O)N[C@@H](CS)C(=O)N[C@@H](CCC(N)=O)C(=O)N[C@@H](CCCCN)C(=O)NCC(=O)N1CCC[C@H]1C(=O)N[C@@H](CO)C(=O)N[C@@H](Cc1ccccc1)C(=O)N[C@@H](C)C(=O)N[C@@H](CCCNC(=N)N)C(=O)N[C@@H](Cc1cnc[nH]1)C(=O)N[C@@H](CO)C(=O)N[C@@H](CCCNC(=N)N)C(=O)N[C@@H](CS)C(=O)N[C@H](C(=O)N[C@@H](Cc1ccc(O)cc1)C(=O)N[C@@H](Cc1ccc(O)cc1)C(=O)N[C@H](C(=O)N[C@@H](CCC(N)=O)C(=O)N[C@@H](CO)C(=O)N[C@@H](CCCNC(=N)N)C(=O)N[C@@H](CCC(=O)O)C(=O)O)[C@@H](C)O)C(C)C
  IC50: 1.2 µM

## CC[C@H](C)[C@@H]1NC(=O)[C@H](CCCNC(=N)N)NC(=O)[C@H](CCCNC(=N)N)NC(=O)[C@@H](NC(=O)[C@H](Cc2ccc(O)cc2)NC(=O)[C@H](CCCNC(=N)N)NC(=O)[C@H](CCCNC(=N)N)NC(=O)[C@H](CCCNC(=N)N)NC(=O)[C@H](CCCNC(=N)N)NC(=O)[C@H](CC(=O)O)NC(=O)[C@H](Cc2ccc(O)cc2)NC(=O)[C@@H]2CCCN2C(=O)[C@H](CO)NC(=O)[C@H](C)NC(=O)[C@@H]2CSSC[C@H](NC(=O)[C@@H](N)[C@@H](C)O)C(=O)N[C@@H](C)C(=O)N[C@@H](CO)C(=O)N[C@@H](CO)C(=O)NCC(=O)N[C@@H](CCCNC(=N)N)C(=O)N[C@@H](Cc3ccc(O)cc3)C(=O)N2)CSSC[C@@H](C(=O)N[C@H](C(=O)O)C(C)C)NC(=O)[C@H](C)NC(=O)[C@H](CC(=O)O)NC(=O)[C@H]([C@@H](C)O)NC1=O (HELM PEPTIDE1{T.C.A.S.S.G.R.Y.C.A.S.P.Y.D.R.R.R.R.Y.C.R.R.I.T.D.A.C.V}$PEPTIDE1,PEPTIDE1,2:R3-9:R3|PEPTIDE1,PEPTIDE1,20:R3-27:R3$$$V2.0)
  IC50: 0.59 µM
